# Test results reported in BigSolDB 2.1.
compound,measurement,setting,value
CC(=O)NC1CCSC1=O (stereo not given),solubility (mole fraction),"in 2-butoxyethanol, 278.15 K",0.0606
same,solubility (mole fraction),"in 2-butoxyethanol, 283.15 K",0.0701
same,solubility (mole fraction),"in 2-butoxyethanol, 288.15 K",0.0776
same,solubility (mole fraction),"in 2-butoxyethanol, 293.15 K",0.0895
same,solubility (mole fraction),"in 2-butoxyethanol, 298.15 K",0.102
same,solubility (mole fraction),"in 2-butoxyethanol, 303.15 K",0.116
same,solubility (mole fraction),"in 2-butoxyethanol, 308.15 K",0.132
same,solubility (mole fraction),"in 2-butoxyethanol, 313.15 K",0.15
same,solubility (mole fraction),"in 2-butoxyethanol, 318.15 K",0.175
same,solubility (mole fraction),"in 2-butoxyethanol, 323.15 K",0.199
same,solubility (mole fraction),"in 2-ethoxyethanol, 278.15 K",0.0952
same,solubility (mole fraction),"in 2-ethoxyethanol, 283.15 K",0.108
same,solubility (mole fraction),"in 2-ethoxyethanol, 288.15 K",0.121
same,solubility (mole fraction),"in 2-ethoxyethanol, 293.15 K",0.141
same,solubility (mole fraction),"in 2-ethoxyethanol, 298.15 K",0.158
same,solubility (mole fraction),"in 2-ethoxyethanol, 303.15 K",0.176
same,solubility (mole fraction),"in 2-ethoxyethanol, 308.15 K",0.199
same,solubility (mole fraction),"in 2-ethoxyethanol, 313.15 K",0.223
same,solubility (mole fraction),"in 2-ethoxyethanol, 318.15 K",0.248
same,solubility (mole fraction),"in 2-ethoxyethanol, 323.15 K",0.278
same,solubility (mole fraction),"in 2-methoxyethanol, 278.15 K",0.132
same,solubility (mole fraction),"in 2-methoxyethanol, 283.15 K",0.15
same,solubility (mole fraction),"in 2-methoxyethanol, 288.15 K",0.169
same,solubility (mole fraction),"in 2-methoxyethanol, 293.15 K",0.189
same,solubility (mole fraction),"in 2-methoxyethanol, 298.15 K",0.21
same,solubility (mole fraction),"in 2-methoxyethanol, 303.15 K",0.233
same,solubility (mole fraction),"in 2-methoxyethanol, 308.15 K",0.255
same,solubility (mole fraction),"in 2-methoxyethanol, 313.15 K",0.279
same,solubility (mole fraction),"in 2-methoxyethanol, 318.15 K",0.31
same,solubility (mole fraction),"in 2-methoxyethanol, 323.15 K",0.344
same,solubility (mole fraction),"in 2-propoxyethanol, 278.15 K",0.0753
same,solubility (mole fraction),"in 2-propoxyethanol, 283.15 K",0.0874
same,solubility (mole fraction),"in 2-propoxyethanol, 288.15 K",0.0976
same,solubility (mole fraction),"in 2-propoxyethanol, 293.15 K",0.11
same,solubility (mole fraction),"in 2-propoxyethanol, 298.15 K",0.123
same,solubility (mole fraction),"in 2-propoxyethanol, 303.15 K",0.138
same,solubility (mole fraction),"in 2-propoxyethanol, 308.15 K",0.158
same,solubility (mole fraction),"in 2-propoxyethanol, 313.15 K",0.179
same,solubility (mole fraction),"in 2-propoxyethanol, 318.15 K",0.203
same,solubility (mole fraction),"in 2-propoxyethanol, 323.15 K",0.23
same,solubility (mole fraction),"in ethanol, 278.15 K",0.0355
same,solubility (mole fraction),"in ethanol, 283.15 K",0.0439
same,solubility (mole fraction),"in ethanol, 288.15 K",0.055
same,solubility (mole fraction),"in ethanol, 293.15 K",0.0699
same,solubility (mole fraction),"in ethanol, 298.15 K",0.0866
same,solubility (mole fraction),"in ethanol, 303.15 K",0.107
same,solubility (mole fraction),"in ethanol, 308.15 K",0.132
same,solubility (mole fraction),"in ethanol, 313.15 K",0.164
same,solubility (mole fraction),"in ethanol, 318.15 K",0.201
same,solubility (mole fraction),"in ethanol, 323.15 K",0.243
same,solubility (mole fraction),"in ethyl acetate, 278.15 K",0.0168
same,solubility (mole fraction),"in ethyl acetate, 283.15 K",0.0199
same,solubility (mole fraction),"in ethyl acetate, 288.15 K",0.0235
same,solubility (mole fraction),"in ethyl acetate, 293.15 K",0.0283
same,solubility (mole fraction),"in ethyl acetate, 298.15 K",0.0325
same,solubility (mole fraction),"in ethyl acetate, 303.15 K",0.0388
same,solubility (mole fraction),"in ethyl acetate, 308.15 K",0.0455
same,solubility (mole fraction),"in ethyl acetate, 313.15 K",0.0546
same,solubility (mole fraction),"in ethyl acetate, 318.15 K",0.0649
same,solubility (mole fraction),"in ethyl acetate, 323.15 K",0.0772
same,solubility (mole fraction),"in methanol, 278.15 K",0.0713
same,solubility (mole fraction),"in methanol, 283.15 K",0.0887
same,solubility (mole fraction),"in methanol, 288.15 K",0.111
same,solubility (mole fraction),"in methanol, 293.15 K",0.137
same,solubility (mole fraction),"in methanol, 298.15 K",0.165
same,solubility (mole fraction),"in methanol, 303.15 K",0.192
same,solubility (mole fraction),"in methanol, 308.15 K",0.222
same,solubility (mole fraction),"in methanol, 313.15 K",0.253
same,solubility (mole fraction),"in methanol, 318.15 K",0.288
same,solubility (mole fraction),"in methanol, 323.15 K",0.321
same,solubility (mole fraction),"in methyl acetate, 278.15 K",0.0229
same,solubility (mole fraction),"in methyl acetate, 283.15 K",0.0271
same,solubility (mole fraction),"in methyl acetate, 288.15 K",0.033
same,solubility (mole fraction),"in methyl acetate, 293.15 K",0.0401
same,solubility (mole fraction),"in methyl acetate, 298.15 K",0.0478
same,solubility (mole fraction),"in methyl acetate, 303.15 K",0.0559
same,solubility (mole fraction),"in methyl acetate, 308.15 K",0.0673
same,solubility (mole fraction),"in methyl acetate, 313.15 K",0.081
same,solubility (mole fraction),"in methyl acetate, 318.15 K",0.0965
same,solubility (mole fraction),"in methyl acetate, 323.15 K",0.119
same,solubility (mole fraction),"in n-butanol, 278.15 K",0.0244
same,solubility (mole fraction),"in n-butanol, 283.15 K",0.0301
same,solubility (mole fraction),"in n-butanol, 288.15 K",0.0388
same,solubility (mole fraction),"in n-butanol, 293.15 K",0.047
same,solubility (mole fraction),"in n-butanol, 298.15 K",0.0574
same,solubility (mole fraction),"in n-butanol, 303.15 K",0.0692
same,solubility (mole fraction),"in n-butanol, 308.15 K",0.0846
same,solubility (mole fraction),"in n-butanol, 313.15 K",0.104
same,solubility (mole fraction),"in n-butanol, 318.15 K",0.128
same,solubility (mole fraction),"in n-butanol, 323.15 K",0.159
same,solubility (mole fraction),"in n-butyl acetate, 278.15 K",0.0119
same,solubility (mole fraction),"in n-butyl acetate, 283.15 K",0.0141
same,solubility (mole fraction),"in n-butyl acetate, 288.15 K",0.0169
same,solubility (mole fraction),"in n-butyl acetate, 293.15 K",0.0194
same,solubility (mole fraction),"in n-butyl acetate, 298.15 K",0.0228
same,solubility (mole fraction),"in n-butyl acetate, 303.15 K",0.0263
same,solubility (mole fraction),"in n-butyl acetate, 308.15 K",0.0307
same,solubility (mole fraction),"in n-butyl acetate, 313.15 K",0.0364
same,solubility (mole fraction),"in n-butyl acetate, 318.15 K",0.0411
same,solubility (mole fraction),"in n-butyl acetate, 323.15 K",0.0496
same,solubility (mole fraction),"in n-pentanol, 278.15 K",0.0232
same,solubility (mole fraction),"in n-pentanol, 283.15 K",0.0294
same,solubility (mole fraction),"in n-pentanol, 288.15 K",0.0362
same,solubility (mole fraction),"in n-pentanol, 293.15 K",0.0429
same,solubility (mole fraction),"in n-pentanol, 298.15 K",0.0532
same,solubility (mole fraction),"in n-pentanol, 303.15 K",0.0646
same,solubility (mole fraction),"in n-pentanol, 308.15 K",0.0769
same,solubility (mole fraction),"in n-pentanol, 313.15 K",0.093
same,solubility (mole fraction),"in n-pentanol, 318.15 K",0.114
same,solubility (mole fraction),"in n-pentanol, 323.15 K",0.14
same,solubility (mole fraction),"in n-propanol, 278.15 K",0.0282
same,solubility (mole fraction),"in n-propanol, 283.15 K",0.0343
same,solubility (mole fraction),"in n-propanol, 288.15 K",0.0456
same,solubility (mole fraction),"in n-propanol, 293.15 K",0.0553
same,solubility (mole fraction),"in n-propanol, 298.15 K",0.0678
same,solubility (mole fraction),"in n-propanol, 303.15 K",0.0839
same,solubility (mole fraction),"in n-propanol, 308.15 K",0.104
same,solubility (mole fraction),"in n-propanol, 313.15 K",0.129
same,solubility (mole fraction),"in n-propanol, 318.15 K",0.159
same,solubility (mole fraction),"in n-propanol, 323.15 K",0.197
same,solubility (mole fraction),"in n-propyl acetate, 278.15 K",0.0131
same,solubility (mole fraction),"in n-propyl acetate, 283.15 K",0.0155
same,solubility (mole fraction),"in n-propyl acetate, 288.15 K",0.0187
same,solubility (mole fraction),"in n-propyl acetate, 293.15 K",0.0217
same,solubility (mole fraction),"in n-propyl acetate, 298.15 K",0.0257
same,solubility (mole fraction),"in n-propyl acetate, 303.15 K",0.0296
same,solubility (mole fraction),"in n-propyl acetate, 308.15 K",0.0351
same,solubility (mole fraction),"in n-propyl acetate, 313.15 K",0.0411
same,solubility (mole fraction),"in n-propyl acetate, 318.15 K",0.0486
same,solubility (mole fraction),"in n-propyl acetate, 323.15 K",0.0575
